Assay results: ChEMBL document CHEMBL5113515, “The Discovery of GSK3640254, a Next-Generation Inhibitor of HIV-1 Maturation” (J Med Chem, 2022)

Experiments:
Cytochrome P450 2D6 = Cytochrome P450 2D6 (Homo sapiens, UniProt P10635); assay: Inhibition of CYP2D6 (unknown origin); format: ADME
[1] = system: Human immunodeficiency virus 1; assay: Antiviral activity against HIV1 harbouring deltaV370/T371A mutant infected in human MT2 cells measured after 4 to 5 days by dual-luciferase reporter assay; format: functional, organism-based; details: mt2
[2] = system: Human immunodeficiency virus 1; assay: Antiviral activity against HIV1 harbouring V362I/V370A mutant infected in human MT2 cells measured after 4 to 5 days by dual-luciferase reporter assay; format: functional, organism-based; details: Human immunodeficiency virus 1, MT2
[3] = system: Human immunodeficiency virus 1; assay: Antiviral activity against HIV1 wild type subtype B NL (4 to 3) harbouring V362/Q369/V370/T371 transfected in human HEK293T cells by dual-luciferase reporter assay; format: functional, organism-based; details: Human immunodeficiency virus 1, HEK-293T
[4] = system: Human immunodeficiency virus 1; assay: Antiviral activity against HIV1 wild type subtype C NL (4 to 3) transfected in human HEK293T cells by dual-luciferase reporter assay; format: functional, organism-based; details: Human immunodeficiency virus 1, HEK-293T
[5] = system: Human immunodeficiency virus 1; assay: Antiviral activity against HIV1 NL (4 to 3) harbouring V362I mutant transfected in human HEK293T cells by dual-luciferase reporter assay; format: functional, organism-based; details: Human immunodeficiency virus 1, HEK-293T
[6] = system: Human immunodeficiency virus 1; assay: Antiviral activity against HIV1 NL (4 to 3) harbouring V362I/deltaV370 mutant transfected in human HEK293T cells by dual-luciferase reporter assay; format: functional, organism-based; details: Human immunodeficiency virus 1, HEK-293T
[7] = Half life in overnight fasted mouse at 1 mg/kg, iv; format: ADME, organism-based; details: in vivo
[8] = Half life in overnight fasted Sprague-Dawley rat at 1 mg/kg, iv; format: ADME, organism-based; details: in vivo
[9] = Volume of distribution at steady state in overnight fasted mouse at 5 mg/kg, po or 1 mg/kg, iv; format: ADME, organism-based; details: in vivo
[10] = Volume of distribution at steady state in overnight fasted cynomolgus monkey at 2 mg/kg, po or 1 mg/kg, iv; format: ADME, organism-based, Macaca fascicularis; details: in vivo
[11] = Oral bioavailability in overnight fasted mouse using spray-dried dispersion at 5 mg/kg; format: ADME, organism-based; details: in vivo
[12] = Oral bioavailability in overnight fasted Sprague-Dawley rat using spray-dried dispersion at 5 mg/kg; format: ADME, organism-based; details: in vivo
[13] = Oral bioavailability in overnight fasted Beagle dog using spray-dried dispersion at 2 mg/kg; format: ADME, organism-based, Canis lupus familiaris; details: in vivo
[14] = AUC(0 to t) in overnight fasted Sprague-Dawley rat at 5 mg/kg, po or 1 mg/kg, iv; format: ADME, organism-based; set-up: dose 5 mg/kg, route po; details: in vivo
[15] = AUC(0 to t) in overnight fasted Beagle dog at 2 mg/kg, po or 1 mg/kg, iv; format: ADME, organism-based, Canis lupus familiaris; set-up: dose 2 mg/kg, route po; details: in vivo
[16] = Cmax in overnight fasted Sprague-Dawley rat at 5 mg/kg, po or 1 mg/kg, iv; format: ADME, organism-based; set-up: dose 5 mg/kg, route po; details: in vivo
[17] = Cmax in overnight fasted cynomolgus monkey at 2 mg/kg, po or 1 mg/kg, iv; format: ADME, organism-based, Macaca fascicularis; set-up: dose 2 mg/kg, route po; details: in vivo
[18] = Plasma protein binding in human by ultracentrifugation; format: ADME, cell-free; details: read-out: PPB (converted)
[19] = system: Human immunodeficiency virus 1; assay: Antiviral activity against HIV1 virus harboring NL (4 to 3) harbouring […]/V370A mutant transfected in human HEK293T cells by luciferase reporter assay; format: functional, organism-based; details: Human immunodeficiency virus 1, HEK-293T
[20] = Metabolic stability in human liver microsomes assessed as half life in presence of NADPH at 0.5 uM by LC-MS/MS analysis; format: ADME, Microsome
[21] = Metabolic stability in dog liver microsomes assessed as half life in presence of NADPH at 0.5 uM by LC-MS/MS analysis; format: ADME, Canis lupus familiaris, Microsome
[22] = Metabolic stability in rat liver microsomes assessed as half life in presence of NADPH at 0.5 uM by LC-MS/MS analysis; format: ADME, Microsome
Cytochrome P450 2B6 = target: T1, Cytochrome P450 2B6 (Homo sapiens, UniProt P20813); assay: Inhibition of CYP2B6 (unknown origin); format: ADME
T1 sequence (P20813 whole entry): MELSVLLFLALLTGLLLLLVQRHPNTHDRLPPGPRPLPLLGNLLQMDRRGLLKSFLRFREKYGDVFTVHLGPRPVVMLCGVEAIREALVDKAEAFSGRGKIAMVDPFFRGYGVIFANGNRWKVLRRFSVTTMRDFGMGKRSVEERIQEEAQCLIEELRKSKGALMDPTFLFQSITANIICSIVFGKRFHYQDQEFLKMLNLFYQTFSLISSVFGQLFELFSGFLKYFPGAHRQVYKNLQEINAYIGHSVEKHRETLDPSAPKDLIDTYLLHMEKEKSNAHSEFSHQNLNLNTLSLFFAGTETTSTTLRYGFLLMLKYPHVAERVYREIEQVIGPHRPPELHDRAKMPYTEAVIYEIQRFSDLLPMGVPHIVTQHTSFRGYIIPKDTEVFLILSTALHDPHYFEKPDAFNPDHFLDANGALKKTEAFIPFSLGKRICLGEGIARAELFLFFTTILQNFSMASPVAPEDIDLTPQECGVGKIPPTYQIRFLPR

Cytochrome P450 2C8 = target: T2, Cytochrome P450 2C8 (Homo sapiens, UniProt P10632); assay: Inhibition of CYP2C8 (unknown origin); format: ADME
T2 sequence (P10632 whole entry): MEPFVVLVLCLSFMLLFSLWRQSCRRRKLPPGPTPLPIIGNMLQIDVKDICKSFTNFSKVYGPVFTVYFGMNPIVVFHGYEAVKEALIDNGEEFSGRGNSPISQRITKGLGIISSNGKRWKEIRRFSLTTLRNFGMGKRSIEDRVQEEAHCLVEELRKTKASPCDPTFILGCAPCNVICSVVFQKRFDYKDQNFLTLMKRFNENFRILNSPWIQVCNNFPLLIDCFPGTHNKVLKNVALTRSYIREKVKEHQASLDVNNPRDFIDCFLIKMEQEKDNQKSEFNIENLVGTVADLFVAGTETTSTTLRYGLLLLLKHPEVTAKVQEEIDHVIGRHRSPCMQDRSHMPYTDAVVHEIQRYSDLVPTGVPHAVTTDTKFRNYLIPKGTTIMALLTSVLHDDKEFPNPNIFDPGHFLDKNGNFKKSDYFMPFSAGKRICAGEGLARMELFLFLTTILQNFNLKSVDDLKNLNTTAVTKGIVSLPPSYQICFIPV

Cytochrome P450 2C9 = Cytochrome P450 2C9 (Homo sapiens, UniProt P11712); assay: Inhibition of CYP2C9 (unknown origin); format: ADME
Cytochrome P450 2C9, sequence (P11712 whole entry): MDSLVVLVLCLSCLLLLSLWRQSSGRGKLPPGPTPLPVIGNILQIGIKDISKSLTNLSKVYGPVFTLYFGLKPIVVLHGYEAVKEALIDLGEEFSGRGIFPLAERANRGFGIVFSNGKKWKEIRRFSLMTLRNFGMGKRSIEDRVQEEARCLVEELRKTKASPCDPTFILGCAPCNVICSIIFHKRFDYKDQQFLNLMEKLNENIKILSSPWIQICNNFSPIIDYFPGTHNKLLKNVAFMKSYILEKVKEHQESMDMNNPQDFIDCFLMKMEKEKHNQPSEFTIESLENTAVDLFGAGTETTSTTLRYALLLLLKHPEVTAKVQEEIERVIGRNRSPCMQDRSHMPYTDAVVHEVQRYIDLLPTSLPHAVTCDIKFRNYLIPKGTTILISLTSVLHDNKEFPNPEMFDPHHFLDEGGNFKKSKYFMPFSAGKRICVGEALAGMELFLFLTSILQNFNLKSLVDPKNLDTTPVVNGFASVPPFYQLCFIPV

Cytochrome P450 2C19 = Cytochrome P450 2C19 (Homo sapiens, UniProt P33261); assay: Inhibition of CYP2C19 (unknown origin); format: ADME
Cytochrome P450 2C19, sequence (P33261 whole entry): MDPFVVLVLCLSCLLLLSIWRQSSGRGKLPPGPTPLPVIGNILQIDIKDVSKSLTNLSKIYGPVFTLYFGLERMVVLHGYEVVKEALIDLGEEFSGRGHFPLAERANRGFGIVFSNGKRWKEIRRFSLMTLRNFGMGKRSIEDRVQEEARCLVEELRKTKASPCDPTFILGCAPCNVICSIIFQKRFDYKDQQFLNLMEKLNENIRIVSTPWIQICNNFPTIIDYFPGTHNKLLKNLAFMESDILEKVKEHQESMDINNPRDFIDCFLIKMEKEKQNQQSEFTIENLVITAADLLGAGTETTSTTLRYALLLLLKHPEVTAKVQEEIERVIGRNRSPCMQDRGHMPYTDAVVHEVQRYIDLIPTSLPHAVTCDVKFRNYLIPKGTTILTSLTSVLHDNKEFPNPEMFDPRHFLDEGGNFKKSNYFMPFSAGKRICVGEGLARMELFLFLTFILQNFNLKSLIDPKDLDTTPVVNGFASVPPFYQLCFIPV

CYP2B6 = target: T3, CYP2B6 (Homo sapiens, UniProt P20813); assay: Induction of CYP2B6 in human hepatocyte; format: ADME, cell-based; details: hepatocytes
T3 sequence (P20813 whole entry): T1 sequence (P20813 whole entry)

CYP3A4 = CYP3A4 (Homo sapiens, UniProt P08684); assay: Induction of CYP3A4 in human hepatocyte; format: ADME, cell-based; details: hepatocytes
CYP3A4, sequence (P08684 whole entry): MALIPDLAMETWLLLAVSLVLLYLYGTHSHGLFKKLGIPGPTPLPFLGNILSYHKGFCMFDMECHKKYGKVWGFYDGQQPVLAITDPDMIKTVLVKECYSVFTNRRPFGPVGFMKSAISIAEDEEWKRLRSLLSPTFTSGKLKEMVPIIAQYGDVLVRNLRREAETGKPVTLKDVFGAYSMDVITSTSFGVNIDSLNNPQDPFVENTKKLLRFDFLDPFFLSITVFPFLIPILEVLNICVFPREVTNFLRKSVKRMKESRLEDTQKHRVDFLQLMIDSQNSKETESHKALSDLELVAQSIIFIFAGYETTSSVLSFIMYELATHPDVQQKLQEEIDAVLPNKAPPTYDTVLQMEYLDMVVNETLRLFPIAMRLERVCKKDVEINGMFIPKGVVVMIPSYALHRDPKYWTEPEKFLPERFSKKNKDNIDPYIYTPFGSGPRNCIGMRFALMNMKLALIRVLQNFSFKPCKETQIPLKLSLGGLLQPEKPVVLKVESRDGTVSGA

[23] = Drug concentration in overnight fasted mouse plasma at 5 mg/kg, po or 1 mg/kg, iv measured after 24 hrs; format: ADME, organism-based
[24] = Drug concentration in overnight fasted Sprague-Dawley rat plasma at 5 mg/kg, po or 1 mg/kg, iv measured after 24 hrs; format: ADME, organism-based
[25] = Drug concentration in overnight fasted Beagle dog plasma at 2 mg/kg, po or 1 mg/kg, iv measured after 24 hrs; format: ADME, organism-based, Canis lupus familiaris
[26] = Drug concentration in overnight fasted cynomolgus monkey plasma at 2 mg/kg, po or 1 mg/kg, iv measured after 24 hrs; format: ADME, organism-based, Macaca fascicularis
[27] = Binding affinity to HIV1 wild type Gag assessed as dissociation constant; set-up: species or system Human immunodeficiency virus 1

Cytochrome P450 2D6, sequence (P10635 whole entry): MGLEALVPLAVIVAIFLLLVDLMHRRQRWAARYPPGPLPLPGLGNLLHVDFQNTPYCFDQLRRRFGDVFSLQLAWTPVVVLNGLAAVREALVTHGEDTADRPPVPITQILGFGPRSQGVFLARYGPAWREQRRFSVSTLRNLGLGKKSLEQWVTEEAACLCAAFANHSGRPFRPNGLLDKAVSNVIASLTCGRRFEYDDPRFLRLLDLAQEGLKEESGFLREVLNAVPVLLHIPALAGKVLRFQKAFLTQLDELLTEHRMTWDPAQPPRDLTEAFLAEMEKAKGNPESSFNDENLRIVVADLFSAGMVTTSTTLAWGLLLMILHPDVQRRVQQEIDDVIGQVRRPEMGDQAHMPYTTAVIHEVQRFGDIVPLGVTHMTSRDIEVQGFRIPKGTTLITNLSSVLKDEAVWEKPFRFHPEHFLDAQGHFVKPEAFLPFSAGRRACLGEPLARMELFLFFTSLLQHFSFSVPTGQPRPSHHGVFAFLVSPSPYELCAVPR

In the case of `C=C(C)[C@@H]1CC[C@]2(NCCN3CCS(=O)(=O)CC3)CC[C@]3(C)[C@H](CC[C@@H]4[C@@]5(C)CC=C(C6=CC[C@@](CF)(C(=O)O)CC6)C(C)(C)[C@@H]5CC[C@]43C)[C@@H]12` [FIPRAVIRIMAT], the IC50 (Cytochrome P450 2D6) is reported as > 13300 nM, the EC50 [1] is reported as 3.6 nM and the EC50 [2] is reported as 3 nM. For the same compound, the EC50 [3] was 1.1 nM, the EC50 [4] was 1.2 nM and the EC50 [5] was 2.7 nM. The EC50 [6] was 3 nM, the half-life [7] was 4.6 h and the half-life [8] was 4 h. It also gave a Vdss [9] of 1 L/kg, a Vdss [10] of 0.43 L/kg and a bioavailability [11] of 91%. For the same compound, the bioavailability [12] was 40%, the F [13] was 117% and the AUC(0-t) [14] was 7.4 µM·h. It also gave an AUCt [15] of 4.3 µM·h, a Cmax [16] of 900 nM and a Cmax [17] of 800 nM. The fraction unbound [18] was 0.14, the EC50 [19] was > 3000 nM and the half-life at 0.5 µM [20] was > 2 h. The half-life at 0.5 µM [21] was > 2 h, the half-life at 0.5 µM [22] was 1.5 h and the IC50 (Cytochrome P450 2B6) was > 13300 nM. The IC50 (Cytochrome P450 2C8) was > 13300 nM, the IC50 (Cytochrome P450 2C9) was > 13300 nM and the IC50 (Cytochrome P450 2C19) was > 13300 nM. For the same compound, the EC50 (CYP2B6) was > 5000 nM, the EC50 (CYP3A4) was > 5000 nM and the concentration at 24 h [23] was 179 nM. The concentration at 24 h [24] was 21.8 nM, the concentration at 24 h [25] was 1640 nM and the concentration at 24 h [26] was 68 nM. The Kd [27] was 1.4 nM.
